Results: ChEMBL document CHEMBL4665653, “VU6005806/AZN-00016130, an advanced M positive allosteric modulator (PAM) profiled as a potential preclinical development candidate” (Bioorg Med Chem Lett, 2019)
Converted amounts (≈) assume the structure as drawn. The source made the active and inactive calls. No cut-off for these calls is given here.

Columns and labels:
[1] = Hepatic clearance in rat; assay type: ADME; details: in vivo
[2] = Hepatic clearance in human; assay type: ADME
[3] = Fraction unbound in rat brain; assay type: ADME, tissue-based
[4] = tested on: P-gp; experiment: Substrate activity at human P-gp expressed in MDCK-MDR1 cells assessed as efflux ratio; assay type: ADME, cell-based
[5] = Solubility of the compound in FaSSIF; assay type: physicochemical
[6] = Solubility of the compound in simulated gastric fluid; assay type: physicochemical
[7] = species: Canis lupus familiaris; experiment: Positive allosteric modulation of dog M4 receptor relative to acetylcholine
[8] = Positive allosteric modulation of cynomolgus monkey M4 receptor; set-up: species or system Macaca fascicularis
[9] = species: Macaca fascicularis; experiment: Positive allosteric modulation of cynomolgus monkey M4 receptor relative to acetylcholine; details: filed as positive allosteric modulator
[10] = target: Cytochrome P450 2D6 (Homo sapiens, UniProt P10635); experiment: Inhibition of CYP2D6 (unknown origin); assay type: ADME
[11] = Plasma clearance in rat; assay type: ADME; details: read-out: CL(app)
[12] = Volume of distribution at steady state in rat; assay type: ADME; details: in vivo, read-out: Vdss
[13] = tested on: Rattus norvegicus; experiment: Reversal of amphetamine-induced hyperlocomotion in rat at 3 mg/kg, po relative to control; assay type: functional
[14] = tested on: Mus musculus; experiment: Reversal of amphetamine-induced hyperlocomotion in C57BL/6 mouse at 0.1 to 10 mg/kg, po pretreated for 30 mins after habituation in chamber followed by amphetamine challenge and measured after 1 hr; assay type: functional, organism-based; details: dose mg/kg 0.1-10, time 30.0 min
[15] = tested on: Mus musculus; experiment: Reversal of amphetamine-induced hyperlocomotion in po dosed C57BL/6 mouse assessed as minimum effective dose pretreated for 30 mins after habituation in chamber followed by amphetamine challenge and measured after 1 hr; assay type: functional; details: C57BL/6, po, 0.5 h, read-out: MED
[16] = Unbound brain-to-plasma concentration ratio in Sprague-Dawley rat at 0.1 to 0.2 mg/kg, iv measured after 1.5 hrs; assay type: ADME, organism-based; details: dose 0.1-0.2 mg/kg, read-out: K(p,uu,brain)
[17] = target: D(2) dopamine receptor (Homo sapiens) (UniProt P14416); experiment: Displacement of [3H]Spiperone from full length human dopamine D2S receptor expressed in CHO cells assessed as residual binding level for radioligand at 10 uM after 120 mins by radiometric scintillation analysis relative to control; assay type: cell-based
Sequence of D(2) dopamine receptor (Homo sapiens) (P14416 whole entry): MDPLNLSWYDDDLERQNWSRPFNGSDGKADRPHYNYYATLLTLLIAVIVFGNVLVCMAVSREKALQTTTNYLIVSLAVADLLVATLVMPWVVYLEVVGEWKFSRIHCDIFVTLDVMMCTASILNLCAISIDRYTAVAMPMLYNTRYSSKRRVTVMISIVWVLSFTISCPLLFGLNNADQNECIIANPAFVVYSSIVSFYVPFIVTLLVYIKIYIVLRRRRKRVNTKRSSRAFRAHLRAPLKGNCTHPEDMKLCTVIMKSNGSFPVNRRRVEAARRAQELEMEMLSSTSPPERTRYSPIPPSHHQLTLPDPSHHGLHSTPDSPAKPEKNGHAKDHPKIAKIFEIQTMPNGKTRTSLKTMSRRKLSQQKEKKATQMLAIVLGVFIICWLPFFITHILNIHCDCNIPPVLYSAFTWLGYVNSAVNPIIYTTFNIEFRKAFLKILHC

[18] = target: B1 bradykinin receptor (Homo sapiens) (UniProt P46663); experiment: Displacement of [3H]desArg10-KD from human recombinant Bradykinin B1 receptor expressed in CHO-K1 cells assessed as residual binding level for radioligand at 10 uM incubated for 60 mins by radiometric scintillation analysis relative to control; assay type: cell-based
Sequence of B1 bradykinin receptor (Homo sapiens) (P46663 whole entry): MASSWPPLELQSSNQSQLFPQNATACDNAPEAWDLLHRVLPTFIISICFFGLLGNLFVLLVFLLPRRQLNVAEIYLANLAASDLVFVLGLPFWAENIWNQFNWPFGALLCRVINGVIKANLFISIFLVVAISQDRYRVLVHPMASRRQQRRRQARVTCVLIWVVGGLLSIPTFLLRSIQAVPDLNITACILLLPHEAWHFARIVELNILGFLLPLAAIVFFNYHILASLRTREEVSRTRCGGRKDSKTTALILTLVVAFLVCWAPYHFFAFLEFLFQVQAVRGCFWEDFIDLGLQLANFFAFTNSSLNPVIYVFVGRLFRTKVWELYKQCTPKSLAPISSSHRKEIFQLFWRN

[19] = target: Alpha-1A adrenergic receptor (Homo sapiens) (UniProt P35348); experiment: Displacement of [3H]-Prazosin from human adrenergic alpha 1A receptor expressed in Chem-1 cells assessed as residual binding level for radioligand at 10 uM incubated for 60 mins by radiometric scintillation analysis relative to control; assay type: cell-based
Sequence of Alpha-1A adrenergic receptor (Homo sapiens) (P35348 whole entry): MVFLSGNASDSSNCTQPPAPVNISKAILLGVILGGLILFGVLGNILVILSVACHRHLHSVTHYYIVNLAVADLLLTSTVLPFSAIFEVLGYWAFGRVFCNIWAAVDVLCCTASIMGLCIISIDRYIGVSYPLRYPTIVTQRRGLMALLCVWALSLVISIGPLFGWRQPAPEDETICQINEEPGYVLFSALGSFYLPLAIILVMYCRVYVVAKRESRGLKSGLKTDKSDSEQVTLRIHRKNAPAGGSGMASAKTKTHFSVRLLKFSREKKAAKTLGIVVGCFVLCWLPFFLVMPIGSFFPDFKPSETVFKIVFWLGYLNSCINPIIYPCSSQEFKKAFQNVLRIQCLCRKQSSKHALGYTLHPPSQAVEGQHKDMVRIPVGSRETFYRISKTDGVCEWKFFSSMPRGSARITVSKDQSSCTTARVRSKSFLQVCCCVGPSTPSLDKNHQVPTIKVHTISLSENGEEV

[20] = target: Sodium-dependent noradrenaline transporter (Homo sapiens) (UniProt P23975); experiment: Displacement of [125I]RTI-55 from full length recombinant human NET expressed in MDCK cells assessed as residual binding level for radioligand at 10 uM after 180 mins by radiometric scintillation analysis relative to control; assay type: cell-based
Sequence of Sodium-dependent noradrenaline transporter (Homo sapiens) (P23975 whole entry): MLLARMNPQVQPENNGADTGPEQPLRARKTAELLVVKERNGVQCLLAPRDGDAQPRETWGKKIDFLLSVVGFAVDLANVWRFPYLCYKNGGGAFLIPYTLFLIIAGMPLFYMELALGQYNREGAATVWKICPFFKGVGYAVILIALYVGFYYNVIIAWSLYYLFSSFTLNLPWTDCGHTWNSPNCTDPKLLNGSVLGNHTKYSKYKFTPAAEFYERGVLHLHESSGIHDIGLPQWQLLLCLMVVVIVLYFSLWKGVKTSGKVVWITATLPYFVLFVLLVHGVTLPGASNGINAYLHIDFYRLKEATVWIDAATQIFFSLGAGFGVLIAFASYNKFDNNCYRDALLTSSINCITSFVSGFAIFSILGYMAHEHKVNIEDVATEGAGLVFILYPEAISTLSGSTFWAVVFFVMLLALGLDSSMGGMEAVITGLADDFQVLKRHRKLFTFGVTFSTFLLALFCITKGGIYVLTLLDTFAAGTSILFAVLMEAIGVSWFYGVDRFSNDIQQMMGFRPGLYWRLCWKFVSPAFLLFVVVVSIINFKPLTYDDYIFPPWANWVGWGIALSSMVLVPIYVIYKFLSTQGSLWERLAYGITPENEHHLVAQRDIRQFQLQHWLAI

[21] = species: Rattus norvegicus; experiment: Displacement of [125I]-Triiodothyronine from thyroid hormone receptors in Sprague-Dawley rat liver assessed as residual binding level for radioligand at 10 uM incubated for 1080 mins by radiometric scintillation analysis relative to control; assay type: tissue-based
[22] = target: Androgen receptor (Homo sapiens) (UniProt P10275); experiment: Displacement of [3H]methyltrienolone from androgen receptor in human LNCaP cells assessed as residual binding level for radioligand at 10 uM measured after 1200 mins radiometric scintillation analysis relative to control; assay type: cell-based
Sequence of Androgen receptor (Homo sapiens) (P10275 whole entry): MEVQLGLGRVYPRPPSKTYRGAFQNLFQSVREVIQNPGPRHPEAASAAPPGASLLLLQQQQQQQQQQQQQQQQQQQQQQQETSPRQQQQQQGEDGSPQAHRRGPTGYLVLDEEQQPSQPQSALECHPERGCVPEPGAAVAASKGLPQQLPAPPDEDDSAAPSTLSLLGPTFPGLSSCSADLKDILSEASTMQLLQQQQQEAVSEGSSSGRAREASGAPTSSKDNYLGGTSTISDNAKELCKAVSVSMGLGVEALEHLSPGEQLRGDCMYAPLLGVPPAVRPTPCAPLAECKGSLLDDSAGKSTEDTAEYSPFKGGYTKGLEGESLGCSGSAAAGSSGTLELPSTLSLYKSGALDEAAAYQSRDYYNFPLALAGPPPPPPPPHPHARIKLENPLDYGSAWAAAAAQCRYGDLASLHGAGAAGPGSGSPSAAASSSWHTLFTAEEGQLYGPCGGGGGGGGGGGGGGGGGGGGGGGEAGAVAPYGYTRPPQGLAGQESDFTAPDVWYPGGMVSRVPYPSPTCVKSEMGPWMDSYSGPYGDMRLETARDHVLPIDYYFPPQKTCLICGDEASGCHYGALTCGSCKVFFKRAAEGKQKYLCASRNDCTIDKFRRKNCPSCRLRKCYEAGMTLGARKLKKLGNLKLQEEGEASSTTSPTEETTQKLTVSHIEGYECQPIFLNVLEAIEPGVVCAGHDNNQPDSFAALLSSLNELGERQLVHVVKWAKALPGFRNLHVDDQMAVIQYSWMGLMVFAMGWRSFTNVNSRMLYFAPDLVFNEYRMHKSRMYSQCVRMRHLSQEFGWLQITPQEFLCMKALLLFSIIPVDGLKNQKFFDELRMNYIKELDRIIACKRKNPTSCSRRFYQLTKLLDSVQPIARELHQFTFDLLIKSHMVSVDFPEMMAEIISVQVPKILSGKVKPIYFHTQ

[23] = target: Epidermal growth factor receptor (Homo sapiens) (UniProt P00533); experiment: Displacement of [125I]-EGF from human EGF receptor expressed in A-431 cells assessed as residual binding level for radioligand at 10 uM incubated for 60 mins by radiometric scintillation analysis relative to control; assay type: cell-based
[24] = species: Rattus norvegicus; experiment: Displacement of [3H]-Flunitrazepam from Wistar rat brain GABA(A)/BzR site assessed as residual binding level for radioligand at 10 uM measured after 60 mins by scintillation counting method relative to control; assay type: tissue-based
[25] = target: Histamine H2 receptor (Homo sapiens) (UniProt P25021); experiment: Displacement of [125I]aminopotentidine full length recombinant human histamine H2 receptor expressed in CHO-K1 cells assessed as residual binding level for radioligand at 10 uM after 120 mins by scintillation counting analysis relative to control; assay type: cell-based
[26] = species: Rattus norvegicus; experiment: Displacement of [3H]-idazoxan from imidazoline I2 receptor in Wistar rat brain assessed as residual binding level for radioligand at 10 uM incubated for 30 mins by scintillation counting analysis relative to control; assay type: tissue-based
[27] = target: Interleukin-1 receptor type 1 (Homo sapiens) (UniProt P14778); experiment: Displacement of [125I]-Interleukin 1beta from human interleukin IL-1 R1 receptor assessed as residual binding level for radioligand at 10 uM incubated for 1200 mins by scintillation counting analysis relative to control
Sequence of Interleukin-1 receptor type 1 (Homo sapiens) (P14778 whole entry): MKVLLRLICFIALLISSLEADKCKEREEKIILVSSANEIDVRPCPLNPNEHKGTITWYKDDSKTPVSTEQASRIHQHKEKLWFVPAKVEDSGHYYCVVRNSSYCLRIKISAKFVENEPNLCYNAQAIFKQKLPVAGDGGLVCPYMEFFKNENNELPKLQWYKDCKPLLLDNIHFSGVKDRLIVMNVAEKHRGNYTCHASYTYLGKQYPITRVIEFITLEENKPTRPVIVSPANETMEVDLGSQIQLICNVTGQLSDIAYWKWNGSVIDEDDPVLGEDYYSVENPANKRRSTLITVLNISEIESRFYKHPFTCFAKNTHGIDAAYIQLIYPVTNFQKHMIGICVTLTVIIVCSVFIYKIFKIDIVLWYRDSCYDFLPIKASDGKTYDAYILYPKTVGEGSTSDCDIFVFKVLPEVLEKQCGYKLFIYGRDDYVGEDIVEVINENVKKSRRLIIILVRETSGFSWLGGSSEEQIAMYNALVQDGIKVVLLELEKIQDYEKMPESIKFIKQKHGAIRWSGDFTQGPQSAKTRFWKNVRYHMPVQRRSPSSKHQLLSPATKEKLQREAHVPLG

[28] = target: Melatonin receptor type 1A (Homo sapiens) (UniProt P48039); experiment: Displacement of 2-[1251]-iodomelatonin from human MT1 receptor expressed in CHO-K1 cells assessed as residual binding level for radioligand at 10 uM incubated for180 mins by scintillation counting analysis relative to control; assay type: cell-based; details: time 180.0 min
Sequence of Melatonin receptor type 1A (Homo sapiens) (P48039 whole entry): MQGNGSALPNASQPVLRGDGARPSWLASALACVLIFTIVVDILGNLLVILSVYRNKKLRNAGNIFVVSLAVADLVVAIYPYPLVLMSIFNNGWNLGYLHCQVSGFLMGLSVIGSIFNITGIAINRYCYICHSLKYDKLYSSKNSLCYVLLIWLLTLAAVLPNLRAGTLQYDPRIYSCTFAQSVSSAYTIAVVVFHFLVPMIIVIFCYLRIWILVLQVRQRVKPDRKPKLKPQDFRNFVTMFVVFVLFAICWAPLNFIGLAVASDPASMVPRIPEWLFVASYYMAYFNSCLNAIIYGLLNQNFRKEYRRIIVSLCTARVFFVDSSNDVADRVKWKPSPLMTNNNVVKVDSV

[29] = target: Muscarinic acetylcholine receptor M3 (Homo sapiens, UniProt P20309); experiment: Displacement of [3H]N-Methylscopolamine from full length human recombinant muscarinic M3 receptor expressed in CHOK1 cells assessed as residual binding level for radioligand at 10 uM measured after 120 mins by radiometric scintillation analysis relative to control; assay type: cell-based; details: CHO-K1
Sequence of Muscarinic acetylcholine receptor M3 (P20309 whole entry, looked up): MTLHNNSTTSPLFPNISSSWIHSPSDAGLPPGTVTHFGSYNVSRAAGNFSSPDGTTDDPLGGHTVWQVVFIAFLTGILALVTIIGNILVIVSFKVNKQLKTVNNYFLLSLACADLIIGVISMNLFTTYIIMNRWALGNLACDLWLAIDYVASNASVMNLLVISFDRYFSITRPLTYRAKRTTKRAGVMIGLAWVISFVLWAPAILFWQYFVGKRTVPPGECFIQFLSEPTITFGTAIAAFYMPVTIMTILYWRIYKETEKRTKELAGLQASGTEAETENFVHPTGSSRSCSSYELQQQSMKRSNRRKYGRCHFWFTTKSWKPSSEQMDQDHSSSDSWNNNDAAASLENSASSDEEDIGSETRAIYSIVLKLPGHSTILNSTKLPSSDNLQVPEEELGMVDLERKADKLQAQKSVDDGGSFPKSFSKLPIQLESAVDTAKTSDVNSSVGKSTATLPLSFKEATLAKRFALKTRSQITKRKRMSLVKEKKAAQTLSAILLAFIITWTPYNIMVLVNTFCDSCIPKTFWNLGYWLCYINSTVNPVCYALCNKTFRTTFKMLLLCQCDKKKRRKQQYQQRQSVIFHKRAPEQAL

[30] = target: Neuropeptide Y receptor type 2 (Homo sapiens) (UniProt P49146); experiment: Displacement of [125I]peptide YY from human Y2 receptor in KAN-TS cell membrane assessed as residual binding level for radioligand at 10 uM after 120 mins by scintillation counting analysis relative to control
[31] = target: Acetylcholine receptor subunit alpha (Homo sapiens) (UniProt P02708); experiment: Displacement of [125I]-alpha-Bungarotoxin from full length nAChR alpha1 receptor in human RD cell membranes assessed as residual binding level for radioligand at 10 uM measured after 120 mins by radiometric scintillation analysis relative to control
Sequence of Acetylcholine receptor subunit alpha (Homo sapiens) (P02708 whole entry): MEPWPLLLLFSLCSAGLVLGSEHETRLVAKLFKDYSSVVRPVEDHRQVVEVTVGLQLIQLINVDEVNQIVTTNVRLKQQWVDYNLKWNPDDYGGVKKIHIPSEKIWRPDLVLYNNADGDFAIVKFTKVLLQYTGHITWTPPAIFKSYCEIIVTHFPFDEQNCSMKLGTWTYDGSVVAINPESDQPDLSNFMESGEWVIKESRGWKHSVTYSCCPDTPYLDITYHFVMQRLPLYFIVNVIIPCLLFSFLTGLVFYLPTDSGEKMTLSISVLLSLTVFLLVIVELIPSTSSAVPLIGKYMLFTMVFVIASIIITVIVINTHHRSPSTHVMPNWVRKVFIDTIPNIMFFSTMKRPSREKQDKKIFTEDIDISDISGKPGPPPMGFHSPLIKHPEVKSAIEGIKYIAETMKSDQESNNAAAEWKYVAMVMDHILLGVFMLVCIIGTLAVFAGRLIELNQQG

[32] = target: Neuronal acetylcholine receptor; alpha3/beta4 (Homo sapiens) (UniProt P30926+P32297); experiment: Displacement of [125I] epibatidine from human nicotinic acetylcholine receptor alpha3/beta4 assessed as residual binding level for radioligand at 10 uM incubated for 60 mins by scintillation counting analysis relative to control; assay type: protein-complex assay
[33] = target: Delta-type opioid receptor (Homo sapiens) (UniProt P41143); experiment: Displacement of [3H]-Naltrindole from recombinant full length human delta opioid receptor expressed in HEK293 cells assessed as residual binding level for radioligand at 10 uM incubated for 60 mins by scintillation counting analysis relative to control; assay type: cell-based
[34] = species: Mus musculus; experiment: Displacement of [3H]-PDBu from phorbol ester receptor in ICR mouse brain assessed as residual binding level for radioligand at 10 uM incubated for 60 mins by scintillation counting analysis relative to control; assay type: tissue-based
[35] = Brain to plasma permeability coefficient, Kp in cynomolgus monkey; assay type: ADME, Macaca fascicularis

COc1nnc2sc(C(=O)NC3CN(c4ncc(C(F)(F)F)cn4)C3)c(N)c2c1C
CLH [1]: 30.5 mL/min/kg | CLH [2]: 2.52 mL/min/kg | fraction unbound [3]: 0.039 | efflux ratio [4]: 1.6 | solubility [5]: 18 µM (≈ 7.91 µg/mL) | solubility [6]: 15 µM (≈ 6.59 µg/mL) | %max [7]: 37% | EC50 [8]: 68 nM | %max [9]: 57% | IC50 [10]: > 30000 nM | clearance [11]: 7.7 mL/min/kg | Vd [12]: 1.81 L/kg | Activity [13]: 54% | Activity [14]: Active | minimal effective dose [15]: 1 mg/kg | Kp uu at 1.5 h [16]: 0.35 | Activity [17]: > 50% | Activity [18]: > 50% | Activity [19]: > 50% | Activity [20]: > 50% | Activity [21]: > 50% | Activity [22]: > 50% | Activity [23]: > 50% | Activity [24]: > 50% | Activity [25]: > 50% | Activity [26]: > 50% | Activity [27]: > 50% | Activity [28]: > 50% | Activity [29]: > 50% | Activity [30]: > 50% | Activity [31]: > 50% | Activity [32]: > 50% | Activity [33]: > 50% | Activity [34]: > 50% | Kp [35]: 1.7
